From patent publication US8865724B2, “Preparation of 2-methyl-4-amino-5(substituted-1H-1,2,3-triazolyl)methylpyrimidine derivatives and microbicidal activity thereof” (Central China Normal University, priority 2011, dated 2014)
Where two headings read alike, the source gives them in different places.

What was measured:
[1] = tested on: Rice Sheath Blight Disease; test: Microbicidal activity, spray then strip inoculation (Embodiment 8); conditions: Oryza sativa, read-out: Rice Sheath Blight Disease Average inhibition rate (%)
Description: (§1) (Pseudomonassyringaepv. tomato (Okabe) Young, Dye & Wilkie), Cucumber Angular Leaf Spot, Rice Sheath Blight Disease (Rhizoctonia solani), Corynespora Leaf Spot of Cucumber (Corynespora cassiicola), Downy Mildew of Cucumber (Cucumber Downy Mildew).
(§2) Testing agents and control agents were sprayed uniformly at A.M. of a sunshine day on the cucumber seminal leaves. After 2 hours, the leaves were inoculated with pathogenic microbes and cultured at humidity. […] Strip inoculation is used for Rice Sheath Blight Disease and phytophthora blight of pepper, in which the liquor was sprayed and after 2 hours, inoculation of strips was performed followed by culturing at humidity. After full occurrence of diseases in the control group, state of illness was examined according to grading standards, and a disease index and inhibition rate were calculated.

[2] = tested on: Cucumber Angular Leaf Spot; test: Microbicidal activity on cucumber seedlings, spray then inoculation (Embodiment 8); conditions: Cucumis sativus, read-out: Cucumber Angular Leaf Spot Average inhibition rate (%)
Description: as §1, §2

[3] = tested on: Corynespora Leaf Spot of Cucumber; test: Microbicidal activity on cucumber seedlings, spray then spore inoculation (Embodiment 8); conditions: Corynespora, in Cucumis sativus, read-out: Corynespora Leaf Spot of Cucumber Average inhibition rate (%)
Description: as §1, §2

Downy Mildew of Cucumber = test: as above; conditions: Cucumis sativus, read-out: Downy Mildew of Cucumber Average inhibition rate (%)
Description: as §1, §2

gray mold of cucumber = test: Spawn growth rate on agar plates (Embodiment 9); type: cell-based, Botrytis cinerea; conditions: 48 h; for inhibition of growth at 12.5 µg/g: Concentration 12.5 μg/g; for inhibition of growth at 25 µg/g: Concentration 25 μg/g; for inhibition of growth at 50 µg/g: Concentration 50 μg/g
wheat scab = test: microbe, parasite or virus in culture; type: cell-based, Gibberella zeae; conditions: for inhibition of growth at 100 µg/g: 48 h, read-out: Wheat scab Average inhibition rate (%); for Wheat scab (inhibition): Table 7
early blight of tomato = test: Spawn growth rate on agar plates (Embodiment 9); type: cell-based, Alternaria solania; conditions: for inhibition of growth at 100 µg/g: 48 h, testing concentration of 100 μg/g, Table 6; for Early blight of tomato (inhibition): Table 7
[4] = tested on: Rice Sheath Blight Disease (sheath and culm blight of rice); test: Spawn growth rate on agar plates (Embodiment 9); type: cell-based, Rhizoctonia solani; conditions: 48 h; for inhibition of growth at 12.5 µg/g: Concentration 12.5 μg/g; for inhibition of growth at 25 µg/g: Concentration 25 μg/g; for inhibition of growth at 50 µg/g: Concentration 50 μg/g
[5] = testing concentration of 100 μg/g, Table 4, read-out: Gray mold of cucumber Average inhibition rate (%)
[6] = testing concentration of 100 μg/g, Table 6, read-out: Gray mold of cucumber Average inhibition rate (%)
[7] = testing concentration of 100 μg/g, Table 6, read-out: Sheath and culm blight of rice Average inhibition rate (%)
[8] = Concentration 100 μg/g, Table 7, read-out: Gray mold of cucumber (inhibition)
[9] = Concentration 100 μg/g, Table 7, read-out: Sheath and culm blight of rice (inhibition)

| SMILES | pest or weed control at 500 µg/g [1] | pest or weed control at 500 µg/g [2] | pest or weed control at 500 µg/g [3] | pest or weed control at 500 µg/g (Downy Mildew of Cucumber) | inhibition of growth at 100 µg/g (gray mold of cucumber; [5]) | melting point | inhibition of growth at 100 µg/g (wheat scab) | inhibition of growth at 100 µg/g (gray mold of cucumber; [6]) | inhibition of growth at 100 µg/g (early blight of tomato) | inhibition of growth at 100 µg/g [4, 7] | further results |
| --- | --- | --- | --- | --- | --- | --- | --- | --- | --- | --- | --- |
| Cc1ncc(Cn2cc(COc3ccc([N+](=O)[O-])cc3)nn2)c(N)n1 [Compound 1] | 90% | 60% | 50% | 75% |  |  |  |  |  |  |  |
| CCOC(=O)c1ccc(OCc2cn(Cc3cnc(C)nc3N)nn2)cc1 [Compound 3] | 80% | 60% | 80% | 60% | 70% | 190 to 192 °C |  |  |  |  |  |
| Cc1ncc(Cn2cc(COc3ccc(F)cc3Cl)nn2)c(N)n1 [Compound 6] | 70% | 65% | 90% | 30% | 63% | 169 to 171 °C |  |  |  |  |  |
| Cc1ncc(Cn2cc(COc3ccc([N+](=O)[O-])cc3[N+](=O)[O-])nn2)c(N)n1 [Compound 8] | 70% | 60% | 70% | 60% | 54% | 210 to 211 °C |  |  |  |  |  |
| COC(=O)Cc1ccc(OCc2cn(Cc3cnc(C)nc3N)nn2)cc1 [Compound 9] | 90% | 60% | 60% | 80% | 79% | 142 to 143 °C |  |  |  |  |  |
| Cc1ncc(Cn2cc(COc3ccc(Cl)c(C)c3)nn2)c(N)n1 [Compound 11] | 70% | 60% | 65% | 50% | 67% | 142 to 143 °C | 54% |  |  |  |  |
| Cc1ncc(Cn2cc(COc3ccccc3)nn2)c(N)n1 [Compound 12] | 80% | 60% | 70% | 70% | 53% | 132 to 133 °C |  |  |  |  |  |
| COc1ccc(OCc2cn(Cc3cnc(C)nc3N)nn2)cc1 [Compound 13] | 70% | 60% | 80% | 50% | 49% | 115 to 117 °C |  |  |  |  |  |
| Cc1ncc(Cn2cc(COc3ccccc3[N+](=O)[O-])nn2)c(N)n1 [Compound 16] | 70% | 70% | 80% | 50% | 82% | 184 to 185 °C | 63% |  |  |  |  |
| Cc1ncc(Cn2nnc(COc3ccccc3)c2I)c(N)n1 [Compound 23] |  |  |  |  |  |  | 59% | 88% | 57% | 96% |  |
| Cc1ncc(Cn2nnc(COc3ccc([N+](=O)[O-])cc3)c2I)c(N)n1 [Compound 24] |  |  |  |  |  | 215 to 217 °C | 68% | 84% | 66% | 97% |  |
| Cc1ncc(Cn2nnc(COc3ccc(Cl)c(C)c3)c2I)c(N)n1 [Compound 25] |  |  |  |  |  | 215 to 217 °C | 62% | 96% | 71% | 97% | inhibition of growth at 12.5 µg/g (gray mold of cucumber; Table 8): 40%; inhibition of growth at 25 µg/g (gray mold of cucumber; Table 8): 50%; inhibition of growth at 50 µg/g (gray mold of cucumber; Table 8): 67%; inhibition of growth at 12.5 µg/g ([4]; Table 8): 0%; inhibition of growth at 25 µg/g ([4]; Table 8): 25%; inhibition of growth at 50 µg/g ([4]; Table 8): 61% |
| COc1ccc(OCc2nnn(Cc3cnc(C)nc3N)c2I)cc1 [Compound 26] |  |  |  |  |  | 177 to 179 °C | 55% | 92% | 69% | 99% | inhibition of growth at 12.5 µg/g (gray mold of cucumber; Table 8): 43%; inhibition of growth at 25 µg/g (gray mold of cucumber; Table 8): 55%; inhibition of growth at 50 µg/g (gray mold of cucumber; Table 8): 88%; inhibition of growth at 12.5 µg/g ([4]; Table 8): 58%; inhibition of growth at 25 µg/g ([4]; Table 8): 72%; inhibition of growth at 50 µg/g ([4]; Table 8): 94% |
| Cc1ncc(Cn2nnc(COc3ccc(F)cc3Cl)c2I)c(N)n1 [Compound 27] |  |  |  |  |  | 187 to 189 °C | 39% | 99% | 38% | 94% | inhibition of growth at 12.5 µg/g (gray mold of cucumber; Table 8): 59%; inhibition of growth at 25 µg/g (gray mold of cucumber; Table 8): 66%; inhibition of growth at 50 µg/g (gray mold of cucumber; Table 8): 92%; inhibition of growth at 12.5 µg/g ([4]; Table 8): 0%; inhibition of growth at 25 µg/g ([4]; Table 8): 37%; inhibition of growth at 50 µg/g ([4]; Table 8): 72% |
| Cc1ncc(Cn2nnc(COc3ccc(Cl)cc3)c2I)c(N)n1 [Compound 28] |  |  |  |  |  | 183 to 185 °C | 67% | 100% | 69% | 100% | inhibition of growth at 12.5 µg/g (gray mold of cucumber; Table 8): 85%; inhibition of growth at 25 µg/g (gray mold of cucumber; Table 7): 42%; inhibition of growth at 25 µg/g (gray mold of cucumber; Table 8): 90%; inhibition of growth at 50 µg/g (gray mold of cucumber; Table 7): 86%; inhibition of growth at 50 µg/g (gray mold of cucumber; Table 8): 98%; inhibition of growth at 100 µg/g (gray mold of cucumber; [8]): 90%; Wheat scab (inhibition) (wheat scab; Concentration 25 μg/g): 43%; Wheat scab (inhibition) (wheat scab; Concentration 50 μg/g): 64%; Wheat scab (inhibition) (wheat scab; Concentration 100 μg/g): 69%; Early blight of tomato (inhibition) (early blight of tomato; Concentration 25 μg/g): 0%; Early blight of tomato (inhibition) (early blight of tomato; Concentration 50 μg/g): 28%; Early blight of tomato (inhibition) (early blight of tomato; Concentration 100 μg/g): 68%; inhibition of growth at 12.5 µg/g ([4]; Table 8): 87%; inhibition of growth at 25 µg/g ([4]; Table 7): 91%; inhibition of growth at 25 µg/g ([4]; Table 8): 96%; inhibition of growth at 50 µg/g ([4]; Table 7): 98%; inhibition of growth at 50 µg/g ([4]; Table 8): 98%; inhibition of growth at 100 µg/g [4, 9]: 99% |
| Cc1ncc(Cn2nnc(COc3ccc(Cl)cc3C)c2I)c(N)n1 [Compound 29] |  |  |  |  |  | 163 to 165 °C | 67% | 100% | 60% | 98% | inhibition of growth at 12.5 µg/g (gray mold of cucumber; Table 8): 47%; inhibition of growth at 25 µg/g (gray mold of cucumber; Table 7): 79%; inhibition of growth at 25 µg/g (gray mold of cucumber; Table 8): 72%; inhibition of growth at 50 µg/g (gray mold of cucumber; Table 7): 90%; inhibition of growth at 50 µg/g (gray mold of cucumber; Table 8): 91%; inhibition of growth at 100 µg/g (gray mold of cucumber; [8]): 100%; Wheat scab (inhibition) (wheat scab; Concentration 25 μg/g): 26%; Wheat scab (inhibition) (wheat scab; Concentration 50 μg/g): 45%; Wheat scab (inhibition) (wheat scab; Concentration 100 μg/g): 52%; Early blight of tomato (inhibition) (early blight of tomato; Concentration 25 μg/g): 0%; Early blight of tomato (inhibition) (early blight of tomato; Concentration 50 μg/g): 25%; Early blight of tomato (inhibition) (early blight of tomato; Concentration 100 μg/g): 41%; inhibition of growth at 12.5 µg/g ([4]; Table 8): 33%; inhibition of growth at 25 µg/g ([4]; Table 7): 64%; inhibition of growth at 25 µg/g ([4]; Table 8): 68%; inhibition of growth at 50 µg/g ([4]; Table 7): 70%; inhibition of growth at 50 µg/g ([4]; Table 8): 69%; inhibition of growth at 100 µg/g [4, 9]: 96% |
| CC1COC(Cn2cncn2)(c2ccc(Oc3ccc(Cl)cc3)cc2Cl)O1 (centres unmarked) [Difenoconazole, reference compound] |  |  |  |  | 73% |  | 98% | 96% | 100% | 100% | inhibition of growth at 100 µg/g (gray mold of cucumber; [8]): 86%; inhibition of growth at 100 µg/g (gray mold of cucumber; Concentration 100 μg/g, Table 8, read-out: Gray mold of cucumber (inhibition)): 96%; Wheat scab (inhibition) (wheat scab; Concentration 100 μg/g): 95%; inhibition of growth at 100 µg/g [4, 9]: 91%; inhibition of growth at 100 µg/g ([4]; Concentration 100 μg/g, Table 8, read-out: Sheath and culm blight of rice (inhibition)): 100% |
